Laboratory results reported in publication PMC6434079, “Time-dependent inhibition of PHD2” (Bioscience Reports, 2017).
Where two headings read alike, the source gives them in different places.

Tests used:
[1] = target: T1, PHD1 (Homo sapiens, UniProt Q96KS0); assay: PHD1 IC50 determination (LC/MS/MS, selectivity screening); assay type: biochemical
[2] = target: T2, PHD3 (Homo sapiens, UniProt Q9H6Z9); assay: PHD3 IC50 determination (LC/MS/MS, selectivity screening); assay type: biochemical
[3] = target: T3, FIH1 (Homo sapiens, UniProt Q9NWT6); assay: FIH1 IC50 determination (LC/MS/MS, selectivity screening)
T3 sequence (Q9NWT6 whole entry): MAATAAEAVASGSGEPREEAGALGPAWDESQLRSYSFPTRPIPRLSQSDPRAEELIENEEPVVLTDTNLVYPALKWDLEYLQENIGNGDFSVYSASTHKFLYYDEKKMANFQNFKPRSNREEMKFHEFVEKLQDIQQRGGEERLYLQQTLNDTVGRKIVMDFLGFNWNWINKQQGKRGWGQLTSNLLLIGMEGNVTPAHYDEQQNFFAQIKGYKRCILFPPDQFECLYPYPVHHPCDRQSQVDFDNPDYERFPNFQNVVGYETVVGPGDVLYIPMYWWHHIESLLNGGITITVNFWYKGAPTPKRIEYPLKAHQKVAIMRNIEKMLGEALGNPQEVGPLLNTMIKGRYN

[4] = target: PHD2 (Homo sapiens, UniProt Q9GZT9); assay: Mechanism of inhibition and Ki determination at increasing 2-OG concentrations; conditions: for mechanism of inhibition of PHD2: IC50 increases linearly with increasing 2-OG concentration
Chain of PHD2 (Q9GZT9 180-417): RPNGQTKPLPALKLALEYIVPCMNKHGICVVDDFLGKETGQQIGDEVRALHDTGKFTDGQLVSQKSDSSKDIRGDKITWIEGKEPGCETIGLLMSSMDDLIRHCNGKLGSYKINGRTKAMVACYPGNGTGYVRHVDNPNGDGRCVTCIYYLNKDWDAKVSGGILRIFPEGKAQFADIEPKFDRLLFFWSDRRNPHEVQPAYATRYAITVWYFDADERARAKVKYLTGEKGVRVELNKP

[5] = target: T2, PHD3; conditions: read-out: Km for 2-OG, PHD3; 1 μM peptide, 1 mM ascorbic acid, 40 nM enzyme
[6] = target: T3, FIH1; conditions: read-out: Km for 2-OG, FIH1; 1 μM peptide, 1 mM ascorbic acid, 15 nM enzyme
[7] = target: T1, PHD1; conditions: read-out: Km for 2-OG, PHD1; 1 μM peptide, 1 mM ascorbic acid, 50 nM enzyme

T2 sequence (Q9H6Z9 whole entry): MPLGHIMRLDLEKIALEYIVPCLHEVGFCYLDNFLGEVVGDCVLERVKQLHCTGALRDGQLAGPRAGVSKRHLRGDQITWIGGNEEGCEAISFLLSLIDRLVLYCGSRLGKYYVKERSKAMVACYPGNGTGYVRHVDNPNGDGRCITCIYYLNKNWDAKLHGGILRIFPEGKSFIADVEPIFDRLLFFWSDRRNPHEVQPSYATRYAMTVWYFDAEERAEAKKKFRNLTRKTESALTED
T1 sequence (Q96KS0 163-403): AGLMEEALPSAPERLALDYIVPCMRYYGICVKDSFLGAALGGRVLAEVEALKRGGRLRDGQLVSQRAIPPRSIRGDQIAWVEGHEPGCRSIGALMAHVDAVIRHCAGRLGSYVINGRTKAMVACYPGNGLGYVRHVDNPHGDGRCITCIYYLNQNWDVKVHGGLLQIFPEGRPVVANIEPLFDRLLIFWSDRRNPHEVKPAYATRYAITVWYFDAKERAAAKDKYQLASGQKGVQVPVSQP

SMILES | IC50 [1] [µM] | IC50 [2] [nM] | IC50 [3] [nM] | other results
CC(C)c1nn(Cc2ccc(-c3ccc(F)cc3)cc2F)c(=O)c(C(=O)NCC(=O)O)c1O [Compound 1] | 0.003 | 13 |  | 
O=C(O)CNC(=O)C(=O)O [Compound 6] |  | 186 | 191 | IC50 ([1]; read-out: PHD1 IC50 (μM)—60 min incubation, 60 min preincubation, 25 nM PHD1, 2 μM 2-OG): 0.851 µM
Cc1cccnc1CN1CCC2(CC1)C(=O)N(c1ccc(-c3ccccc3)cc1)c1ccccc12 [Compound 9] | 1.62 | 2040 | > 10000 | 
O=C(O)c1cnn(-c2nc3cc(C(F)(F)F)c(Cl)cc3[nH]2)c1 [Compound 2] | 0.011 | 25 | 5490 | 
O=C(O)CNC(=O)c1nc(Cl)c2ccccc2c1O [Compound 5] | 0.016 | 21 | > 10000 | 
N#Cc1cn(-c2c[nH]n(-c3cc(N4CC(F)(F)C4)ncn3)c2=O)nn1 [Compound 7] | 0.02 | 12 |  | Ki [4]: 87 nM; mechanism of inhibition of PHD2 [4]: compete with 2-OG substrate for binding at the enzyme active site
O=C(O)CNC(=O)c1c(O)n(C2CCCCC2)c(=O)n(C2CCCCC2)c1=O [Compound 3] | 0.015 | 8 |  | 
Cc1nc(C(=O)NCC(=O)O)c(O)c2ccc(Oc3ccccc3)cc12 [Compound 4] | 0.002 | 5 | > 10000 | mechanism of inhibition of PHD2 [4]: compete with 2-OG substrate for binding at the enzyme active site
O=C(O)CCC(=O)C(=O)O [Compound 2-OG, 2-oxoglutarate] |  |  |  | Km [5]: 0.66 µM; Km [6]: 0.56 µM; Km [7]: 0.31 µM
O=C(NC(c1ccccc1)c1ccccc1)c1cnc(-c2cccnn2)nc1O [Compound 8] | 0.02 | 25 | 9770 | 
